# Source: publication PMC8413292, “Small-molecule polymerase inhibitor protects non-human primates from measles and reduces shedding” (Nature Communications, 2021)
# Several values for one entry are separate records, joined by “and”; a condition that tells them apart may be missing. Equal entries are not always repeated.
# System: MV/FrankfurtMain.DEU/17.11 (genotype D8)
# Assay: White blood cell counts from whole blood
# Format: in vivo, squirrel monkeys (Saimiri sciureus)
# Details: for WBC Mean Diff, untreated vs. prophylactic / WBC Mean Diff, untreated vs. therapeutic (d7) / WBC Mean Diff, untreated vs. therapeutic(d3): Dunnett's multiple comparisons test; for Cells [10^3/mm^3], white blood cells / Cells/ml, white blood cells / Counted Cells (Total), white blood cells: individual animals
# Experimental: White blood cell counts, viral load quantification in PBMCs, and quantification of neutralizing antibody titers were performed as follows: for white blood cell counts, blood was diluted 1:100 in 3% acetic acid and cells were counted using a Neubauer chamber. For viral load quantification in PBMCs, blood was centrifuged at 3000 rpm for 15 min and serum was frozen at −20 °C until further use. Red blood cell lysis was performed and the remaining PBMCs were counted using a Neubauer chamber. Viral titers in PBMCs were quantified in quadruplicates using limited dilution method and calculated as TCID50/10^6 PBMCs. Neutralizing antibody titers were quantified by incubating MeV with 2-fold serial dilutions of the respective serum for 20 min at room temperature in quadruplicates. Vero/hSLAM cells were added and incubated for 3 days at 37 °C. Neutralizing antibody titers are expressed as the reciprocal of the highest serum dilution showing no signs of infection. For virus titration from throat swabs, swabs were placed in 150 μl DMEM with 3% penicillin/streptomycin and the titer was quantified by limited dilution method.
compound,measurement,setting,value
Cn1nc(C(F)(F)F)cc1C(=O)Nc1ccc(S(=O)(=O)N2CCCC[C@H]2CCN2CCOCC2)cc1 [ERDRP-0519],"WBC Mean Diff, untreated vs. prophylactic",Row 1 (0 dpi),0.14 10^3cells/mm^3
same,"WBC Mean Diff, untreated vs. therapeutic (d7)",Row 1 (0 dpi),2 10^3cells/mm^3
same,"WBC Mean Diff, untreated vs. therapeutic(d3)",Row 1 (0 dpi),0.75 10^3cells/mm^3
same,"WBC Mean Diff, untreated vs. prophylactic",Row 2 (3 dpi),0.875 10^3cells/mm^3
same,"WBC Mean Diff, untreated vs. therapeutic (d7)",Row 2 (3 dpi),-2.625 10^3cells/mm^3
same,"WBC Mean Diff, untreated vs. therapeutic(d3)",Row 2 (3 dpi),-1.042 10^3cells/mm^3
same,"WBC Mean Diff, untreated vs. prophylactic",Row 3 (7 dpi),-2.333 10^3cells/mm^3
same,"WBC Mean Diff, untreated vs. therapeutic (d7)",Row 3 (7 dpi),-0.3333 10^3cells/mm^3
same,"WBC Mean Diff, untreated vs. therapeutic(d3)",Row 3 (7 dpi),-1.375 10^3cells/mm^3
same,"WBC Mean Diff, untreated vs. prophylactic",Row 4 (10 dpi),-1.958 10^3cells/mm^3
same,"WBC Mean Diff, untreated vs. therapeutic (d7)",Row 4 (10 dpi),-0.5417 10^3cells/mm^3
same,"WBC Mean Diff, untreated vs. therapeutic(d3)",Row 4 (10 dpi),-1.167 10^3cells/mm^3
same,"WBC Mean Diff, untreated vs. prophylactic",Row 5 (14 dpi),-1.375 10^3cells/mm^3
same,"WBC Mean Diff, untreated vs. therapeutic (d7)",Row 5 (14 dpi),-0.25 10^3cells/mm^3
same,"WBC Mean Diff, untreated vs. therapeutic(d3)",Row 5 (14 dpi),-4.767 10^3cells/mm^3
same,"WBC Mean Diff, untreated vs. prophylactic",Row 6 (17 dpi),-1.667 10^3cells/mm^3
same,"WBC Mean Diff, untreated vs. therapeutic (d7)",Row 6 (17 dpi),-1.333 10^3cells/mm^3
same,"WBC Mean Diff, untreated vs. therapeutic(d3)",Row 6 (17 dpi),-1.533 10^3cells/mm^3
same,"WBC Mean Diff, untreated vs. prophylactic",Row 7 (21 dpi),-1.125 10^3cells/mm^3
same,"WBC Mean Diff, untreated vs. therapeutic (d7)",Row 7 (21 dpi),-1.875 10^3cells/mm^3
same,"WBC Mean Diff, untreated vs. therapeutic(d3)",Row 7 (21 dpi),-2.402 10^3cells/mm^3
same,leukopenia (total white blood cell counts),day 3 treatment group,no leukopenia was observed
same,total white blood cell counts,day 7 treatment group,"a trend for lower total white blood cell counts, but this was not significant"
same,leukopenia (total white blood cell counts),prophylactic group,no leukopenia was observed
same,"Cells [10^3/mm^3], white blood cells","prophylactic group, 0 dpi",7.5 10^3/mm^3 and 4.5 10^3/mm^3 and 5.5 10^3/mm^3 and 2.25 10^3/mm^3 and 10.75 10^3/mm^3
same,"Cells/ml, white blood cells","prophylactic group, 0 dpi",4.50E+06 Cells/ml and 5.50E+06 Cells/ml and 2.25E+06 Cells/ml and 1.08E+07 Cells/ml and 7.50E+06 Cells/ml
same,"Counted Cells (Total), white blood cells","prophylactic group, 0 dpi",30 and 18 and 22 and 9 and 43
same,"Cells [10^3/mm^3], white blood cells","prophylactic group, 3 dpi",4.75 10^3/mm^3 (3×) and 4.25 10^3/mm^3 and 4 10^3/mm^3 and 7.25 10^3/mm^3
same,"Cells/ml, white blood cells","prophylactic group, 3 dpi",4.75E+06 Cells/ml (3×) and 4.25E+06 Cells/ml and 4.00E+06 Cells/ml and 7.25E+06 Cells/ml
same,"Counted Cells (Total), white blood cells","prophylactic group, 3 dpi",19 (3×) and 17 and 16 and 29
same,"Cells [10^3/mm^3], white blood cells","prophylactic group, 7 dpi",6 10^3/mm^3 (2×) and 7 10^3/mm^3 and 4.75 10^3/mm^3 (2×) and 6.75 10^3/mm^3
same,"Cells/ml, white blood cells","prophylactic group, 7 dpi",6.00E+06 Cells/ml (2×) and 7.00E+06 Cells/ml and 4.75E+06 Cells/ml (2×) and 6.75E+06 Cells/ml
same,"Counted Cells (Total), white blood cells","prophylactic group, 7 dpi",24 (2×) and 28 and 19 (2×) and 27
same,"Cells [10^3/mm^3], white blood cells","prophylactic group, 10 dpi",4.75 10^3/mm^3 (2×) and 6.5 10^3/mm^3 and 3 10^3/mm^3 and 3.75 10^3/mm^3 and 2 10^3/mm^3
same,"Cells/ml, white blood cells","prophylactic group, 10 dpi",4.75E+06 Cells/ml (2×) and 6.50E+06 Cells/ml and 3.00E+06 Cells/ml and 3.75E+06 Cells/ml and 2.00E+06 Cells/ml
same,"Counted Cells (Total), white blood cells","prophylactic group, 10 dpi",19 (2×) and 26 and 12 and 15 and 8
same,"Cells [10^3/mm^3], white blood cells","prophylactic group, 14 dpi",6 10^3/mm^3 and 3 10^3/mm^3 and 5 10^3/mm^3 (2×) and 3.75 10^3/mm^3 and 2.75 10^3/mm^3
same,"Cells/ml, white blood cells","prophylactic group, 14 dpi",3.00E+06 Cells/ml and 5.00E+06 Cells/ml (2×) and 3.75E+06 Cells/ml and 2.75E+06 Cells/ml and 6.00E+06 Cells/ml
same,"Counted Cells (Total), white blood cells","prophylactic group, 14 dpi",24 and 12 and 20 (2×) and 15 and 11
same,"Cells [10^3/mm^3], white blood cells","prophylactic group, 17 dpi",4.75 10^3/mm^3 and 5.25 10^3/mm^3 and 5.5 10^3/mm^3 and 3.25 10^3/mm^3 and 6.5 10^3/mm^3 and 2.25 10^3/mm^3
same,"Cells/ml, white blood cells","prophylactic group, 17 dpi",5.25E+06 Cells/ml and 5.50E+06 Cells/ml and 3.25E+06 Cells/ml and 6.50E+06 Cells/ml and 2.25E+06 Cells/ml and 4.75E+06 Cells/ml
same,"Counted Cells (Total), white blood cells","prophylactic group, 17 dpi",19 and 21 and 22 and 13 and 26 and 9
same,"Cells [10^3/mm^3], white blood cells","prophylactic group, 21 dpi",5.25 10^3/mm^3 and 3.5 10^3/mm^3 and 7.75 10^3/mm^3 and 2.25 10^3/mm^3 (2×) and 5 10^3/mm^3
same,"Cells/ml, white blood cells","prophylactic group, 21 dpi",3.50E+06 Cells/ml and 7.75E+06 Cells/ml and 2.25E+06 Cells/ml (2×) and 5.00E+06 Cells/ml and 5.25E+06 Cells/ml
same,"Counted Cells (Total), white blood cells","prophylactic group, 21 dpi",21 and 14 and 31 and 9 (2×) and 20
same,WBC group mean (Mean 2),"prophylactic group, Row 1 (0 dpi)",6.11 10^3cells/mm^3
same,WBC group mean (Mean 2),"prophylactic group, Row 2 (3 dpi)",4.958 10^3cells/mm^3
same,WBC group mean (Mean 2),"prophylactic group, Row 3 (7 dpi)",5.875 10^3cells/mm^3
same,WBC group mean (Mean 2),"prophylactic group, Row 4 (10 dpi)",4.125 10^3cells/mm^3
